Assay results as given in ChEMBL document CHEMBL2157932, “Synthesis and pharmacological evaluation of carbamic acid 1-phenyl-3-(4-phenyl-piperazine-1-yl)-propyl ester derivatives as new analgesic agents” (Bioorg Med Chem Lett, 2012).
pIC50, pKi: −log10 of the molar value. Calls of active or inactive are those of the source. The rule behind the calls is not given here.

Tests used:
[1] = Oral bioavailability in rat at 15 mg/kg; format: ADME, organism-based; details: in vivo
[2] = tested on: Rattus norvegicus; assay: Antiinflammatory activity in po dosed rat persistent inflammatory pain model assessed as inhibition of carrageenan-induced mechanical hyperalgesia; format: functional
[3] = Binding affinity to opioid receptor at 10 uM
[4] = species: Mus musculus; assay: Antinociceptive activity in mouse by hot plate test in presence of naloxone; format: functional, organism-based
[5] = Half life in rat at 15 mg/kg, iv; format: ADME, organism-based; design: dose 15 mg/kg, route intravenous; details: in vivo
[6] = tested on: Mus musculus; assay: Inhibition of DOI-induced head twitches in mouse at 1 mg/kg, ip; format: functional; details: route intraperitoneal
[7] = molecular target: 5-hydroxytryptamine receptor 2B (Homo sapiens, UniProt P41595); assay: Binding affinity to 5HT2B receptor
Chain of 5-hydroxytryptamine receptor 2B (P41595 whole entry): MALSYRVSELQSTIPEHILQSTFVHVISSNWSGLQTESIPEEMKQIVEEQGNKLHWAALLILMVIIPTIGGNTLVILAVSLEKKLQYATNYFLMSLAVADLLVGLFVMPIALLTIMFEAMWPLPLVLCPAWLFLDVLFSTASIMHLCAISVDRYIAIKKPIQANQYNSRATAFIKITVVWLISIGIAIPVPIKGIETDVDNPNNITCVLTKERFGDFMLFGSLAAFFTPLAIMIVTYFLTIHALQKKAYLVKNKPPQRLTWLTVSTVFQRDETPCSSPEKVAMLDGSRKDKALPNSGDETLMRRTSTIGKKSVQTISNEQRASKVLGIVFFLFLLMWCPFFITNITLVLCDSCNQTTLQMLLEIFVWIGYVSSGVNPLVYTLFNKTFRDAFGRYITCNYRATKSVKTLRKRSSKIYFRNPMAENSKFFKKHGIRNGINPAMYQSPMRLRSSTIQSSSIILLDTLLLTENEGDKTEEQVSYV

[8] = Cmax in rat at 15 mg/kg, po; format: ADME, organism-based; design: dose 15 mg/kg, route oral; details: in vivo
[9] = AUCall in rat at 15 mg/kg, iv; format: ADME, organism-based; design: dose 15 mg/kg, route intravenous; details: plasma
[10] = Cmax in rat at 15 mg/kg, iv; format: ADME, organism-based; design: dose 15 mg/kg, route intravenous; details: in vivo
[11] = tested on: Mus musculus; assay: Antinociceptive activity in po dosed mouse by hot plate test; format: functional
[12] = tested on: Mus musculus; assay: Inhibition of 5-hydroxytryptophan-induced head twitches in mouse at 3 mg/kg, ip; format: functional; details: route intraperitoneal
[13] = tested on: Mus musculus; assay: Inhibition of DOI-induced head twitches in ip dosed mouse; format: functional, organism-based
[14] = Half life in rat liver microsomes by LC/MS/MS; format: ADME, Microsome
[15] = AUCall in rat at 15 mg/kg, po; format: ADME, organism-based; design: dose 15 mg/kg, route oral; details: plasma
[16] = tested on: Mus musculus; assay: Neurotoxicity in mouse assessed as myoreflexation or sedation at 52.7 mg/kg, ip by rotarod test; format: toxicity, organism-based; design: dose 52.7 mg/kg, route intraperitoneal; details: in vivo
[17] = tested on: Mus musculus; assay: Inhibition of DOI-induced head twitches in mouse at 0.3 mg/kg, ip; format: functional; details: route intraperitoneal
[18] = Clearance in rat at 15 mg/kg, iv; format: ADME, organism-based; design: dose 15 mg/kg, route intravenous; details: in vivo
[19] = Tmax in rat at 15 mg/kg, po; format: ADME, organism-based; design: dose 15 mg/kg, route oral; details: in vivo
[20] = molecular target: 5-hydroxytryptamine receptor 2A (Rattus norvegicus, UniProt P14842); assay: Displacement of [3H]-ketanserin from 5HT2A receptor in rat cortical membrane; format: cell membranes
Chain of 5-hydroxytryptamine receptor 2A (Rattus norvegicus, UniProt P14842) (P14842 whole entry): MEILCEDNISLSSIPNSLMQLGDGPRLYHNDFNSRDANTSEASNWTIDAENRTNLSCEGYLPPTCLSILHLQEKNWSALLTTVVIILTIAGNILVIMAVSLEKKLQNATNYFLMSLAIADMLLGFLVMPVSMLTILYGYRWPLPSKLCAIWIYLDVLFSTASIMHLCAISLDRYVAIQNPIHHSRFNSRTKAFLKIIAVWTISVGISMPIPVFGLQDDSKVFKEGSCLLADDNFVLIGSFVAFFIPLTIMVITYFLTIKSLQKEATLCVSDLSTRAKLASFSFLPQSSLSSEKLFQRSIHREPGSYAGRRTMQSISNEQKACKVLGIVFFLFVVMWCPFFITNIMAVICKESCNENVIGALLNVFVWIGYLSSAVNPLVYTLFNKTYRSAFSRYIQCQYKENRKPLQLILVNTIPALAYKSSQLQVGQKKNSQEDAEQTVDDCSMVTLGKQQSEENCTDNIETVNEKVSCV

[21] = tested on: Mus musculus; assay: Analgesic activity in ip dosed mouse assessed as inhibition of acetic acid-induced writhing response administered 0.5 to 1 hr before acetic acid challenge; format: functional
[22] = molecular target: 5-hydroxytryptamine receptor 2A (Homo sapiens, UniProt P28223); assay: Antagonist activity at 5HT2A receptor; format: functional
Chain of 5-hydroxytryptamine receptor 2A (Homo sapiens, UniProt P28223) (P28223 whole entry): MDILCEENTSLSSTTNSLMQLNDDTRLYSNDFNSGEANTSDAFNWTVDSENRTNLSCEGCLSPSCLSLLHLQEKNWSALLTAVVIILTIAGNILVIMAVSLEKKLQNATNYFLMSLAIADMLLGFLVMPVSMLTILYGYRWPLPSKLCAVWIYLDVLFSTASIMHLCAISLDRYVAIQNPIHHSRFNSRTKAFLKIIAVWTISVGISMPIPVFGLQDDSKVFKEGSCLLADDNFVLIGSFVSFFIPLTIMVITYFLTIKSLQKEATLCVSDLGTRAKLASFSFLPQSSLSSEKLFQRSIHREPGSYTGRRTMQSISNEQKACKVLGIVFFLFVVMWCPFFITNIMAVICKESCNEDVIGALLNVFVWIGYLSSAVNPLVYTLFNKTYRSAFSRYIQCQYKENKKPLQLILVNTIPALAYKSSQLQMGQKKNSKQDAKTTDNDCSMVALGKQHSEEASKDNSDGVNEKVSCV

[23] = Half life in human liver microsomes by LC/MS/MS; format: ADME, Microsome
[24] = tested on: Mus musculus; assay: Neurotoxicity in mouse assessed as myoreflexation or sedation at 139 mg/kg, po by rotarod test; format: toxicity, organism-based; design: dose 139 mg/kg, route oral; details: in vivo
[25] = tested on: Mus musculus; assay: Inhibition of 5-hydroxytryptophan-induced head twitches in mouse at 10 mg/kg, ip; format: functional; details: route intraperitoneal
[26] = tested on: Mus musculus; assay: Inhibition of DOI-induced head twitches in mouse at 3 mg/kg, ip; format: functional; details: route intraperitoneal
[27] = tested on: Mus musculus; assay: Analgesic activity in po dosed mouse assessed as inhibition of acetic acid-induced writhing response administered 0.5 to 1 hr before acetic acid challenge; format: functional
[28] = Volume of distribution at steady state in rat at 15 mg/kg, iv; format: ADME, organism-based; design: dose 15 mg/kg, route intravenous; details: in vivo, read-out: Vdss
[29] = Half life in rat at 15 mg/kg, po; format: ADME, organism-based; design: dose 15 mg/kg, route oral; details: in vivo
[30] = Binding affinity to prostaglandin synthetase at 10 uM
[31] = molecular target: Sodium-dependent noradrenaline transporter (Homo sapiens) (UniProt P23975); assay: Binding affinity to norepinephrine transporter at 10 uM
Chain of Sodium-dependent noradrenaline transporter (Homo sapiens) (P23975 whole entry): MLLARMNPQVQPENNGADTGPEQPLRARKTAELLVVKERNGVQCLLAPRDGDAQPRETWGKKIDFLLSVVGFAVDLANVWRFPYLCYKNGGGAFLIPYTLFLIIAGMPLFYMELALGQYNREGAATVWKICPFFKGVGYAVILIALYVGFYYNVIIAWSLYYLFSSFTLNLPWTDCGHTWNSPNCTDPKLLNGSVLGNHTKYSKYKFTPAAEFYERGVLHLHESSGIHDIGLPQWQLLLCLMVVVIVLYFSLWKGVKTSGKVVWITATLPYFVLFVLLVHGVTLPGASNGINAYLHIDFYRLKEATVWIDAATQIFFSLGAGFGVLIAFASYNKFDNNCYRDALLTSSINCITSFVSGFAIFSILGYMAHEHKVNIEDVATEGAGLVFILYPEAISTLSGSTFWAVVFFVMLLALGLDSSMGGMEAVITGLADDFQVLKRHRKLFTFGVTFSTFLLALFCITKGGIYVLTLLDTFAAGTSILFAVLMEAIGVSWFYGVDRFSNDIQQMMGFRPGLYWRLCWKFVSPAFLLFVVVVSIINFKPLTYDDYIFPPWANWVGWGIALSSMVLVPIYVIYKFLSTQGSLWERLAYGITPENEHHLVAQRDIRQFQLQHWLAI

[32] = molecular target: T1, 5-hydroxytryptamine receptor 1A (Rattus norvegicus, UniProt P19327); assay: Displacement of [3H]-8-OH-DPAT from 5HT1A receptor in rat hippocampus; format: tissue-based
T1 sequence (P19327 whole entry): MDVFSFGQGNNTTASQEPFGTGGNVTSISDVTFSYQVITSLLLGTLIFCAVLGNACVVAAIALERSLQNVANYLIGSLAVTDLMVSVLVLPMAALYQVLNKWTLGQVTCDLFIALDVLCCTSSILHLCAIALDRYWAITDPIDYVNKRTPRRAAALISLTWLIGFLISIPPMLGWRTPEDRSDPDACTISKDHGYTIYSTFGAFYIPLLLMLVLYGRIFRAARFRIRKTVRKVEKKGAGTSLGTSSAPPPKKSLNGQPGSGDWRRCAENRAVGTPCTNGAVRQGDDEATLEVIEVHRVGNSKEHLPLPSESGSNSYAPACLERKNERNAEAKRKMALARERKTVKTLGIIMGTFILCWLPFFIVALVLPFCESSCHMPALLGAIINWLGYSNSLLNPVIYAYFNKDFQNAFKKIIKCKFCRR

[33] = molecular target: Sigma non-opioid intracellular receptor 1 (Homo sapiens, UniProt Q99720); assay: Binding affinity to Sigma1
Chain of Sigma non-opioid intracellular receptor 1 (Q99720 whole entry): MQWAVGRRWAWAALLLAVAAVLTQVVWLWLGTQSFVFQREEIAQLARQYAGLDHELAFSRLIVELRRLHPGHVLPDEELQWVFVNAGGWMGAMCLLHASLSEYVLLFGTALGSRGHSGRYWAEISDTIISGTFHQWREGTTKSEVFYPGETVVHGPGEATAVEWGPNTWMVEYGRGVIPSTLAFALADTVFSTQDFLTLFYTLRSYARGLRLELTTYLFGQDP

## COc1ccc(N2CCN(CC[C@@H](OC(N)=O)c3ccccc3)CC2)cc1
[1]
  bioavailability: 73.8%
[2]
  Activity: Dose-dependent effect
  ED50: 0.68 mg/kg
[3]
  inhibition: inactive
[4]
  Activity: Active
[5]
  half-life: 1.8 h
[6]
  inhibition in vivo at 1 mg/kg: 61.4%
[7]
  pKi: 6.79
[8]
  Cmax: 2200 ng/mL
[9]
  AUC: 17800 ng·h/mL
[10]
  Cmax: 9950 ng/mL
[11]
  ED50: 2.86 mg/kg
[12]
  inhibition in vivo at 3 mg/kg: 46.2%
[13]
  inhibition: Dose-dependent effect
[14]
  half-life: 1.52 h
[15]
  AUC: 13200 ng·h/mL
[16]
  Activity: Non-toxic
[17]
  inhibition in vivo at 0.3 mg/kg: 40%
[18]
  clearance: 14.1 mL/min/kg
[19]
  Tmax: 1.1 h
[20]
  pIC50: 5.24
[21]
  ED50: 0.94 mg/kg
[22]
  pIC50: 5.24
[23]
  half-life: 5.32 h
[24]
  Activity: Non-toxic
[25]
  inhibition in vivo at 10 mg/kg: 100%
[26]
  inhibition in vivo at 3 mg/kg: 89.3%
[27]
  ED50: 2.65 mg/kg
[28]
  Vd: 1.77 L/kg
[29]
  half-life: 2.6 h
[30]
  inhibition: inactive
[31]
  inhibition: inactive
[32]
  pIC50: 5.05
[33]
  pKi: 6.41
